From patent publication US5478848A (priority 1994, dated 1995)
Read-outs that look alike come from different tables or passages of the source.

Key:
[1] = Inhibition of arthritis in the adjuvant-induced arthritis model in the Lewis rat; format: in vivo; conditions: for ED50: Rattus norvegicus, ip, 384 h; for Potency compared with indomethacin: i.p., adjuvant arthritis model
Excerpt: One similarity is the sensitivity to certain therapeutic treatments known to be active in humans. Also, therapeutic doses in humans are similar to therapeutic doses in the adjuvant arthritis model. Examples include NSAIDs, steroids, methotrexate, immunosuppressive drugs, such as cyclosporin, and cytotoxic drugs, such as cyclophosphamide and allopurinol. Jeurissen et. al., Arthritis and Rheumatism 34, 961-972 (1991); Yocum et. al., Annals of Internal Medicine 109, 863-869 (1988); Rau, et. al., Arthritis and Rheumatism 34, 1236-1244 (1991); Otterness and Bliven, supra; Ward, Am. J. Med. Medicine. pp. 3-9 (Jul. 13, 1984).
Lewis rats were given a 0.1 ml injection of adjuvant (1 mg/animal) into the base of the tail on day 0. Swelling of the feet and ankles was first noted on days 10-12. Maximal swelling was observed on days 16-20. The cell infiltrate of the chronic inflammatory responses is predominantly mononuclear (indicating the presence of cell-mediated immunity). Animals were observed daily, and ankle diameter was measured in millimeters on days 12 and 16 using a hand-held dial micrometer. The degree of swelling was assessed by calculating the mean difference between day 16 and day 0 ankle diameter. The results are expressed as the percent inhibition of the increase in ankle diameter on day 16. At this point the animals were sacrificed and tissues were taken for histologic evaluation.
Animals were administered test drugs, suspended in 5% polyethylene glycol and 0.5% Tween-80 in phosphate buffered saline (p.o. or i.p.) once each day from day 1 to day 16.

[2] = cited from earlier work
[3] = Inhibition of arthritis in the passive transfer model; format: in vivo, Lewis rat
Protocol: Another arthritis model often used is the passive transfer model. In the passive transfer model of adjuvant arthritis, spleen cells are harvested from animals 12-14 days after the animals have been injected with adjuvant, cultured 24 hours in vitro with the T-cell mitogen, concanavaLin A, and injected into naive rats. Within 14-20 days, arthritis develops in the paws. […] Otterness and Bliven, supra.
Nimodipine was also tested for its ability to inhibit arthritis in the passive-transfer model. Otterness and Bliven, supra.
Spleens were harvested from naive rats or from rats 9-12 days after sensitization with complete Freund's adjuvant. Single cell suspensions from spleen were prepared and cells were cultured for 24 hours with the T cell mitogen, concanavalin A. Spleen cells were harvested and injected, i.v., into naive animals. Ankle diameters were determined 14-18 days after injection of spleen cells from naive or sensitized animals into naive animals. Animals were administered nimodipine at 10 mg/kg/day, i.p., suspended in 5% polyethylene glycol and 0.5% Tween-80 in phosphate-buffered saline.

[4] = tested on: L-type Ca2+ channels; conditions: fibroblasts, macrophage/monocyte-like cells, Kuppfer cells; cited from earlier work
[5] = cited from earlier work; remark: listed apart in the source

COC(=O)C1=C(C)NC(C)=C(C(=O)OCC(C)C)C1c1ccccc1[N+](=O)[O-] (stereo not shown) [nisoldipine]
ED50 ([1]; i.p. dosage, once each day from day 1 to day 16, increase in ankle diameter on day 16, read-out: ED50): < 1 mg/kg
Potency compared with indomethacin [1]: comparable in potency to indomethacin

COCCOC(=O)C1=C(C)NC(C)=C(C(=O)OC(C)C)C1c1cccc([N+](=O)[O-])c1 (stereo not shown) [nimodipine]
Gastrointestinal irritation ([2]; acute, sub-acute and chronic exposure, even at supra-therapeutic concentrations, NDA applications): have not revealed any gastrointestinal irritation
Gastrointestinal toxicity ([2]; expected therapeutic dose in rheumatoid arthritis, prolonged periods of treatment): no gastrointestinal toxicity has been observed
ED50 [1]: 4 mg/kg
Potency compared with indomethacin [1]: comparable in potency to indomethacin
Inhibition of arthritis in the passive transfer model ([3]; 10 mg antagonist/kg body weight/day): completely inhibited arthritis
Increase in paw diameter ([3]; sensitized T cells, 10 mg/kg/day, i.p., 14-18 days after injection of spleen cells): 0.2 ± 0.05 mm

COC(=O)C1=C(C)NC(C)=C(C(=O)OC)C1c1ccccc1[N+](=O)[O-] [nifedipine]
ED50 [1]: 11 mg/kg

COC(=O)C1=C(C)NC(C)=C([N+](=O)[O-])C1c1ccccc1C(F)(F)F (stereo not shown) [Bay K 8644]
Entry of Ca2+ into non-excitable cells [4]: stimulated

CC1=C(CC(=O)O)c2cc(F)ccc2/C1=C\c1ccc([S+](C)[O-])cc1 (stereo not shown) [sulindac]
Potency relative to indomethacin ([5]; human, in vivo): only half as potent as indomethacin
Toxic side effects ([5]; human, in vivo): has toxic side effects of its own

CN(Cc1cnc2nc(N)nc(N)c2n1)c1ccc(C(=O)N[C@@H](CCC(=O)O)C(=O)O)cc1 [methotrexate]
Progressive dose-related hepatic changes ([5]; extended periods of treatment, correlates with ethanol ingestion): progressive dose-related hepatic changes
Hepatic effects in patients treated for rheumatoid arthritis ([5]; human, in vivo): Hepatic fibrosis and cirrhosis have been reported

COc1ccc(CCN(C)CCCC(C#N)(c2ccc(OC)c(OC)c2)C(C)C)cc1OC (stereo not shown) [verapamil]
ED50 [1]: 10 mg/kg

COc1ccc2c(c1)c(CC(=O)O)c(C)n2C(=O)c1ccc(Cl)cc1 [indomethacin]
ED50 [1]: 3 ± 1 mg/kg
Patients experiencing untoward side effects ([5]; human, in vivo): 35-50%
Patients forced to discontinue use ([5]; human, in vivo): about 20%
Ulceration of the upper gastrointestinal tract / gastrointestinal bleeding ([5]; therapeutic doses used in rheumatoid arthritis): ulceration of the upper gastrointestinal tract leading to gastrointestinal bleeding is common
